Measured values as given in patent US20240317736A1, “DEUTERATED DERIVATIVE AS ATX INHIBITOR, AND APPLICATION THEREOF” (Xizang Haisco Pharmaceutical Co., Ltd., priority 2020, published 2024).
Read-outs that look alike come from different tables or passages of the source.

What was measured:
hERG potassium channel = hERG potassium channel (Homo sapiens, UniProt Q12809); experiment: cell-based
Procedure: The effect of the example compounds on the current of an hERG potassium channel (human Ether-à-go-go Related Gene potassium channel) was tested by 10 means of an electrophysiological manual patch-clamp method.
HEK293 cell lines stably expressing hERG ion channels were purchased from Invitrogen.
A test compound was firstly dissolved in DMSO and prepared into a stock solution with a final concentration of 30 mM. […] Five working solutions with different gradient concentrations were used to determine the potential inhibitory effect of the compound on the hERG potassium channel and used to fit a dose-response curve and calculate IC50.
A small slide carrying HEK293 cells in a culture dish was placed in a perfusion tank on a micromanipulator. • 2. […] The peak value of the tail current was the magnitude of hERG currents. • 9 The hERG currents used to detect the test compounds were continuously recorded for 120 seconds prior to administration, thereby evaluating the stability of test cells generating hERG currents. […] The inhibitory effects of the test compounds on hERG currents were tested as follows: firstly, the hERG current measured in the extracellular fluid containing 0.1% DMSO was used as a test baseline. […] Upon completion of each perfusion, waiting about 5 min allowed the compounds to be fully acted on the cells, and the hERG currents were recorded synchronously. […]

[1] = Pharmacokinetic test in mice; assay type: in vivo; conditions: male, C57, mouse, plasma; for Cmax: read-out: C0 or Cmax
Procedure: Test objective: the pharmacokinetic characteristics and bioavailability of test compounds in mice were evaluated.
Test animals: thirty-six C57 male mice, about 25 g, 6-8 weeks old, purchased from Chengdu Ddossy Experimental Animals Co., Ltd., with the production license number of SCXK (CHUAN) 2020-030.
Vehicle for intravenous administration: 5% DMA+5% Solutol+90% Saline; vehicle for intragastric administration: 0.5% MC
Before and after the administration, 0.06 mL of blood was taken from the orbits under isoflurane anaesthesia and placed in an EDTAK2 centrifuge tube. The blood was centrifuged at 5000 rpm at 4° C. for 10 min, and plasma was collected. Time points for blood collection: 0 min, 5 min, 15 min, 30 min, 1 h, 2 h, 4 h, 6 h, 8 h, 10 h and 24 h. Before analysis and detection, all plasma samples were stored at −80° C.

[2] = Pharmacokinetic test in dogs; assay type: in vivo, male beagles; conditions: male, beagle, dog, plasma; for Cmax: read-out: C0 or Cmax
Procedure: Test objective: the pharmacokinetic characteristics and bioavailability of test compounds in dogs were evaluated.
Test animals: twelve male beagles, 8-10 kg, 0.5-1.5 years old, purchased from Beijing Marshall Biotechnology Co. Ltd., with the production license number of SCXK (JING) 2016-001.
Vehicle for intravenous administration: 5% DMSO+5% Solutol+90% Saline; • vehicle for intragastric administration: 1% DMSO+1% Solutol+98% (0.5% MC);
(§1) Before and after the administration, 1.0 mL of blood was taken from the veins of the forelimbs and placed in an EDTAK2 centrifuge tube. The blood was centrifuged at 5000 rpm at 4° C. for 10 min, and plasma was collected. Time points for blood collection: 0 min, 5 min, 15 min, 30 min, 1 h, 2 h, 4 h, 6 h, 8 h, 10 h, 12 h and 24 h. Before analysis and detection, all plasma samples were stored at −80° C.

[3] = target: T1, autocrine motility factor (Homo sapiens, UniProt Q13822); experiment: Inhibition of LPA formation in mixed ex vivo human plasma; assay type: biochemical; conditions: 37° C., 2 h
T1 construct: Whole blood was anticoagulated with heparin and centrifuged, and then plasma was collected; from tissue; host or cells: pooled human plasma (heparin-anticoagulated whole blood)
Procedure: Autocrine motility factor is a phosphodiesterase in plasma that converts lysophosphatidylcholine (LPC) to lysophosphatidic acid (LPA). Therefore, the formation of LPA can be used to evaluate the potency of an autocrine motility factor inhibitor. The potency of the compound in mixed ex vivo human plasma was evaluated.
Whole blood was anticoagulated with heparin and centrifuged, and then plasma was collected. 5 μL of gradient-diluted test compounds or DMSO was added to 95 μL of plasma and incubated at 37° C. for 2 h. After that, a stop buffer (40 mM disodium hydrogen phosphate buffer, containing 30 mM of citric acid, pH=4) was added. LPA in plasma was detected by LC-MSMS before and after incubation. In order to determine the concentration of LPA 18:2 or LPA 20:4 in the plasma in study, calibration standard substances at 20000 ng/mL, 10000 ng/mL, 5000 ng/ml, 2000 ng/ml, 1000 ng/mL, 500 ng/mL, 200 ng/ml, 100 ng/mL, 50 ng/ml, 20 ng/mL and 10 ng/ml for LPA 18:2 or LPA 20:4 were prepared by performing serial dilution in butanol. 3 μL of calibration standard solution was added to 27.0 μL of blank plasmas in each 1.5 mL microcentrifuge tube to produce 1× calibration standard substances. 30.0 μL of standard substances or plasma in study was added to each 1.5 mL microcentrifuge tube. 200 μL of butanol (containing 25.0 ng/mL LPA 17:0 for internal control) was added to each 1.5 mL microcentrifuge tube containing the plasma in study or calibration standard substance. Vortex oscillation was performed for 1 min, and centrifugation was performed at 10000 rpm for 10 min. 180 μL of the supernatant was transferred to a 96-well plate, and LC/MS/MS was used together with the standard substance to quantify the concentration of LPA 18:2 in the plasma. In short, 8 μL of the solution was injected, and LC-MS/MS analysis using an ACQUITY UPLC BEH C18 column (2.1×50 mm, 1.7 μm) was performed, wherein mobile phase A [20 mM NH4OAC aqueous solution (0.1% FA)] and mobile phase B [5 mM NH4OAC aqueous solution/0.2% FA in ACN=5:95] were used. The parameters of a mass spectrometer for LPA 18:2 were optimized by means of deprotonation of molecular ions. For LPA 18:2 at m/z 433.2([M−H]−), LPA 20:4 at 457.2, and LPA 18:2 and LPA 20:4 both at m/z 152.8, abundant product ions were obtained. Quantitative data were obtained in a multiple reaction monitoring (MRM) negative electrospray ionization mode.
The inhibition rates of compounds at different concentrations on LPA formation were determined by comparing the changes of LPA levels in incubated and unincubated plasma. The IC50 of the compounds was calculated as a calculation inhibition rate, and the relative concentration at each well=the concentration at each well−the average concentration at baseline.
Inhibition rate %=(average relative concentration at control well−average relative concentration at test well)/average relative concentration at control well×100%. The curve was plotted with the inhibition rates as a y axis and the compound concentrations as an x axis, and fitting was performed by GraphPad Prism7.0 using log (inhibitor) and normalized response (variable slope).

[4] = Pharmacokinetic test in monkeys; assay type: in vivo, Cynomolgus macaques; conditions: male, cynomolgus monkey, plasma; for Cmax: read-out: C0 or Cmax
Procedure: Test objective: the pharmacokinetic characteristics and bioavailability of test compounds in monkeys were evaluated.
Test animals: twelve male Cynomolgus macaques, 2.4-5.9 kg, 3-5.5 years old, purchased from Suzhou Xishan Zhongke Laboratory Animal Co., Ltd., with the production license number of SCXK (SU) 2018-0001.
Vehicle for intravenous administration: 5% DMSO+5% Solutol+90% Saline; • vehicle for intragastric administration: 1% DMSO+1% Solutol+98% (0.5% CMC-Na)
as §1

Sequence of hERG potassium channel (Q12809 whole entry): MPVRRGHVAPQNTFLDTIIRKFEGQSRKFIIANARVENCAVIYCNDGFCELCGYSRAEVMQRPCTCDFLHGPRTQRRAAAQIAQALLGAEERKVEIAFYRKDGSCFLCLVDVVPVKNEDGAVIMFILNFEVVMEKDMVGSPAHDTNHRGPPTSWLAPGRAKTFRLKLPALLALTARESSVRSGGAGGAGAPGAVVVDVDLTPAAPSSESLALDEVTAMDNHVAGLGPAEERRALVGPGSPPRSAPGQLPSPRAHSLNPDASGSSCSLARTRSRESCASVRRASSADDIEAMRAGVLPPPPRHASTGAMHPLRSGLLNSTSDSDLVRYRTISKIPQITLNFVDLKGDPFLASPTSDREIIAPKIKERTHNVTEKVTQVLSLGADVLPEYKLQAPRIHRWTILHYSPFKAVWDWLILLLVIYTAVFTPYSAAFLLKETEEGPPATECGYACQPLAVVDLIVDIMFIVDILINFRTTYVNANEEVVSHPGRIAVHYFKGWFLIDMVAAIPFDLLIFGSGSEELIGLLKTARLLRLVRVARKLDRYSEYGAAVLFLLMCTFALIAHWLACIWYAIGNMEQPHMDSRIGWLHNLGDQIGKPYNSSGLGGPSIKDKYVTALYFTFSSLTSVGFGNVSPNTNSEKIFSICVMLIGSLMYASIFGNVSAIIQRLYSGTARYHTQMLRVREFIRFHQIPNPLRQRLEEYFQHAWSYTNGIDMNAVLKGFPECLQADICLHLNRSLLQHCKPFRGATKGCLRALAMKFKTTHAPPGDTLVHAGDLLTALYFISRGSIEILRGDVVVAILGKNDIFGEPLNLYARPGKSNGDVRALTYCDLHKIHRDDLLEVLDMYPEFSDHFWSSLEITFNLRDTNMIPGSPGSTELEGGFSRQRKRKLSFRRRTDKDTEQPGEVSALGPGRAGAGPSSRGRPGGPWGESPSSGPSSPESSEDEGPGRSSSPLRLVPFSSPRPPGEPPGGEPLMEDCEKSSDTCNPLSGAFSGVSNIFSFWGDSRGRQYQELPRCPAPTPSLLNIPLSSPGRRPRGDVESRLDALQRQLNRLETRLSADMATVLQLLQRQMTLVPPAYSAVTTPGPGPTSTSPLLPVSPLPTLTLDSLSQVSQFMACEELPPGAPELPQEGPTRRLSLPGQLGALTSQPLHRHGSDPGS

[2H]C([2H])([2H])N(c1nc(-c2ccc(F)cc2)c(C#N)s1)c1c(CC)nn2cc(F)c(N3CCN(CC(=O)N4CC(O)C4)CC3)cc12 [Compound 3, 2-((2-ethyl-6-fluoro-5-(4-(2-(3-hydroxyazetidin-1-yl)-2-oxoethyl)piperazin-1-yl)pyrazolo[1,5-a]pyridin-3-yl)(methyl-d3)amino)-4-(4-fluorophenyl)thiazole-5-carbonitrile]
IC50 (hERG potassium channel): 23100 nM
AUC ([1]; IV 1 mg/kg): 1490 ng·h/mL
half-life ([1]; IV 1 mg/kg): 1.56 h
Cmax ([1]; IV 1 mg/kg): 1110 ng/mL
AUC ([1]; PO 10 mg/kg): 9600 ng·h/mL
Tmax ([1]; PO 10 mg/kg): 0.25 h
half-life ([1]; PO 10 mg/kg): 2.14 h
bioavailability ([1]; PO 10 mg/kg vs IV 1 mg/kg): 64.5%
Cmax ([1]; PO 10 mg/kg): 1300 ng/mL
AUC ([2]; IV 1 mg/kg): 6840 ± 883 ng·h/mL
half-life ([2]; IV 1 mg/kg): 6.96 ± 1.5 h
Cmax ([2]; IV 1 mg/kg): 1490 ± 451 ng/mL
AUC ([2]; PO 2 mg/kg): 15900 ± 2980 ng·h/mL
Tmax ([2]; PO 2 mg/kg): 1.67 ± 0.58 h
half-life ([2]; PO 2 mg/kg): 7.19 ± 0.75 h
bioavailability ([2]; PO 2 mg/kg vs IV 1 mg/kg): 116 ± 22%
Cmax ([2]; PO 2 mg/kg): 1620 ± 176 ng/mL
IC50 ([3]; LPA 18:2 by LC-MS/MS, read-out: IC50 for inhibiting LPA formation (18:2)): 42.7 nM
IC50 ([3]; LPA 20:4 by LC-MS/MS, read-out: IC50 for inhibiting LPA formation (20:4)): 44.5 nM
AUC ([4]; IV 1 mg/kg): 2010 ± 621 ng·h/mL
half-life ([4]; IV 1 mg/kg): 2.96 ± 1 h
Cmax ([4]; IV 1 mg/kg): 1040 ± 116 ng/mL
AUC ([4]; PO 5 mg/kg): 3120 ± 492 ng·h/mL
Tmax ([4]; PO 5 mg/kg): 1.33 ± 0.58 h
half-life ([4]; PO 5 mg/kg): 4.02 ± 0.59 h
Cmax ([4]; PO 5 mg/kg): 657 ± 170 ng/mL
